Source: US10508120B2, “TYK2 inhibitors and uses thereof” (Nimbus Lakshmi, Inc., priority 2017, dated 2019)

Tests used:
[1] = target: Tyk2/JAK2 (heterodimeric complex) (Homo sapiens (Human), UniProt P29597); experiment: IL-12 Induced pSTAT4 in Human PBMC; assay type: cell-based; details: 1.7 ng/mL IL-12
Text: The IL-12 Induced pSTAT4 assay evaluates the inhibition of IL-12 induced STAT4 phophorylation mediated by Tyk2/JAK2 (heterodimeric complex).

[2] = target: human TYK2 (JH2domain-pseudokinase) (Homo sapiens (Human), UniProt P29597); experiment: TYK2 JH2 Domain Binding Assay (KINOMEscan)
Chain of human TYK2 (JH2domain-pseudokinase) (P29597 556-888): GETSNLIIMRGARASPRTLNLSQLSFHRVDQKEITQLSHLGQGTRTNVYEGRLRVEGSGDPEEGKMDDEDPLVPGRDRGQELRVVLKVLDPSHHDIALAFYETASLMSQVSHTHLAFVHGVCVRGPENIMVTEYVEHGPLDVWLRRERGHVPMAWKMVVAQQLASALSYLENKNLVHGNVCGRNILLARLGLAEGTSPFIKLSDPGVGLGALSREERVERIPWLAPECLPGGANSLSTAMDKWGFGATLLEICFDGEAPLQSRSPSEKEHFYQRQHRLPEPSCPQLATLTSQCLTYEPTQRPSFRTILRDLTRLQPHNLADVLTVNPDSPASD
Summary of the method: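 Pseudokinase domain binding was measured by qPCR of tagged, bead-retained kinase after 1 h room-temperature competition, with 0.9% DMSO and compound up to 30,000 nM in 3-fold steps. Hill-equation Kd, duplicate.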

[3] = target: JAK2/JAK2 homdimeric complex (Homo sapiens (Human), UniProt O60674); experiment: GM-CSF Induced pSTAT5 in Human PBMC; assay type: cell-based; details: GM-CSF 5 ng/mL for 20 minutes, pSTAT5 by MSD, read-out: PBMC_GMCSF_pSTAT5 IC50
Chain of JAK2/JAK2 homdimeric complex (O60674 whole entry, the tested form may be a part): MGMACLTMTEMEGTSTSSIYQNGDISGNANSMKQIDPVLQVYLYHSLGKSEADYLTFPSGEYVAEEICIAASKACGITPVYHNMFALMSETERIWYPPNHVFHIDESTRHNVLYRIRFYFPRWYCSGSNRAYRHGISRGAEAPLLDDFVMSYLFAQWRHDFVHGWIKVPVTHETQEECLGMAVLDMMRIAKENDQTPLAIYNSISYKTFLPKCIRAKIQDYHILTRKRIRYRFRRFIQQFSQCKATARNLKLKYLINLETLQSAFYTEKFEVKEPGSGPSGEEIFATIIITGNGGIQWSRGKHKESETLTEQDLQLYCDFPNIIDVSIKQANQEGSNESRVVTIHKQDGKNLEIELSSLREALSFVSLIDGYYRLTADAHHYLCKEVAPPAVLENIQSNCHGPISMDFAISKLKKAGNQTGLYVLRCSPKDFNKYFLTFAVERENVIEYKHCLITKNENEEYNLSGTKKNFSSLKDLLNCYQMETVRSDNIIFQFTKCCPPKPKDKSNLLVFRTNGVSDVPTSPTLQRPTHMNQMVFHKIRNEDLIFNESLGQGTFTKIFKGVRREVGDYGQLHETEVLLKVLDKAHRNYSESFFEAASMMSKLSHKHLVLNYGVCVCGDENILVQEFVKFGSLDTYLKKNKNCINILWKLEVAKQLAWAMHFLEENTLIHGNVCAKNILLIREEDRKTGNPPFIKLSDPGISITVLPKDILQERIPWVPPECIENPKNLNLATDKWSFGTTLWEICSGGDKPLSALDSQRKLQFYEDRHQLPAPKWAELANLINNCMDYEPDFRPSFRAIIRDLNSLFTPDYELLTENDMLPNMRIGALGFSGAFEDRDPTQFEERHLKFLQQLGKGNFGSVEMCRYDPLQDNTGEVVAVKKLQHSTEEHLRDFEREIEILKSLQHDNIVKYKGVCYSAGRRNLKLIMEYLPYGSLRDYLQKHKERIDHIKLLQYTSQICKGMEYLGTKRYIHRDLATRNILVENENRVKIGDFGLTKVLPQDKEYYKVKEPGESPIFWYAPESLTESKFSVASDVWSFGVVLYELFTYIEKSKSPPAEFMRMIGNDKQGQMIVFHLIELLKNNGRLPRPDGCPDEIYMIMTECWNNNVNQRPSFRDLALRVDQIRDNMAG
Chain of JAK2/JAK2 homdimeric complex (P32927 17-897 partner): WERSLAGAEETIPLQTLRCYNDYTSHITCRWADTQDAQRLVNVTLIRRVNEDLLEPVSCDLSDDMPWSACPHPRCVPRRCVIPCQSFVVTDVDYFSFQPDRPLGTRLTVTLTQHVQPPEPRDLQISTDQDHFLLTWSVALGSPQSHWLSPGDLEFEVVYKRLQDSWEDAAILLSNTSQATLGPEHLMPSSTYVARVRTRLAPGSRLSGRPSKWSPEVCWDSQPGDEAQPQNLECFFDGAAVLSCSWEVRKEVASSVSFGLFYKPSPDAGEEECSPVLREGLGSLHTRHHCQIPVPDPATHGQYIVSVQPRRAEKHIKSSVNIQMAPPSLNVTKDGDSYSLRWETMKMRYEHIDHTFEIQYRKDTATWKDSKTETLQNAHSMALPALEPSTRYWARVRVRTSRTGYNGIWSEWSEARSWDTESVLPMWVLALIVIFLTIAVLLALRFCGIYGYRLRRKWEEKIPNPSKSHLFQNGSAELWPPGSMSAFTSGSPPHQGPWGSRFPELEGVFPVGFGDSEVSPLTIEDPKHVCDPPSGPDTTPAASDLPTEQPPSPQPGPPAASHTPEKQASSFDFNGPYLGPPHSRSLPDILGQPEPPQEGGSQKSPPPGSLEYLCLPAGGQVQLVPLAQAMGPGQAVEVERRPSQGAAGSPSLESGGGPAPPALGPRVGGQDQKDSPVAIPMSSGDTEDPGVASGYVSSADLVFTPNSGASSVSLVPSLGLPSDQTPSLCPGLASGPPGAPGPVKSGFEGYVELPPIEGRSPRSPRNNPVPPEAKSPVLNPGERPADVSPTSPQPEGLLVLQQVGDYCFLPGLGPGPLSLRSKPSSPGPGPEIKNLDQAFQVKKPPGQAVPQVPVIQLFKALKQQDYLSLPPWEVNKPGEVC

JAK2 kinase domain (JH1) = JAK2 kinase domain (JH1) (Homo sapiens (Human), UniProt O60674); experiment: JAK2 Radioactive Kinase Assay; assay type: biochemical; details: compound at 10 μM; ATP 10 μM; read-out: JAK2 JH1% Inhibition @ 10 μM
Chain of JAK2 kinase domain (JH1) (O60674 849-1124): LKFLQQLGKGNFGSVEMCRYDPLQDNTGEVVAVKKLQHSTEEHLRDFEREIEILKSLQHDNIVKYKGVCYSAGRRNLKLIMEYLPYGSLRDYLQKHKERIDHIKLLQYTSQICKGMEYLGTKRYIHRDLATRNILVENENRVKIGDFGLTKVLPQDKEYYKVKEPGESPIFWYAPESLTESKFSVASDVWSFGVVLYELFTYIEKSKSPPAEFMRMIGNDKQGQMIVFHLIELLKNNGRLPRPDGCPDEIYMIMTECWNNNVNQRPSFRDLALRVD
Summary of the method: (§1)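 Read-out is percent inhibition from a radioactive kinase reaction, measured with compound at 10 μM.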

Tyk2 kinase domain (DH1) = Tyk2 kinase domain (DH1) (Homo sapiens (Human), UniProt P29597); experiment: Tyk2 Radioactive Kinase Assay; assay type: biochemical; details: compound at 10 μM; ATP 10 μM; read-out: Tyk2 JH1% Inhibition @ 10 μM
Chain of Tyk2 kinase domain (DH1) (P29597 897-1176): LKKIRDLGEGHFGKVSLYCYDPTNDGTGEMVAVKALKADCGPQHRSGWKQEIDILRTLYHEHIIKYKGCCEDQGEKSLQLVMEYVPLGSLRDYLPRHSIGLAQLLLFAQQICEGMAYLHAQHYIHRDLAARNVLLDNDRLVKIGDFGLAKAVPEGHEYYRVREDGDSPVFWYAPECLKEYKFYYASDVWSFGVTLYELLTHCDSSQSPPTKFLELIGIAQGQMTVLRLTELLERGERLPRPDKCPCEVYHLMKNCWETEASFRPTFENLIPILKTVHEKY
Summary of the method: as §1

Chain of Tyk2/JAK2 (heterodimeric complex) (P29597 whole entry, other chains not shown): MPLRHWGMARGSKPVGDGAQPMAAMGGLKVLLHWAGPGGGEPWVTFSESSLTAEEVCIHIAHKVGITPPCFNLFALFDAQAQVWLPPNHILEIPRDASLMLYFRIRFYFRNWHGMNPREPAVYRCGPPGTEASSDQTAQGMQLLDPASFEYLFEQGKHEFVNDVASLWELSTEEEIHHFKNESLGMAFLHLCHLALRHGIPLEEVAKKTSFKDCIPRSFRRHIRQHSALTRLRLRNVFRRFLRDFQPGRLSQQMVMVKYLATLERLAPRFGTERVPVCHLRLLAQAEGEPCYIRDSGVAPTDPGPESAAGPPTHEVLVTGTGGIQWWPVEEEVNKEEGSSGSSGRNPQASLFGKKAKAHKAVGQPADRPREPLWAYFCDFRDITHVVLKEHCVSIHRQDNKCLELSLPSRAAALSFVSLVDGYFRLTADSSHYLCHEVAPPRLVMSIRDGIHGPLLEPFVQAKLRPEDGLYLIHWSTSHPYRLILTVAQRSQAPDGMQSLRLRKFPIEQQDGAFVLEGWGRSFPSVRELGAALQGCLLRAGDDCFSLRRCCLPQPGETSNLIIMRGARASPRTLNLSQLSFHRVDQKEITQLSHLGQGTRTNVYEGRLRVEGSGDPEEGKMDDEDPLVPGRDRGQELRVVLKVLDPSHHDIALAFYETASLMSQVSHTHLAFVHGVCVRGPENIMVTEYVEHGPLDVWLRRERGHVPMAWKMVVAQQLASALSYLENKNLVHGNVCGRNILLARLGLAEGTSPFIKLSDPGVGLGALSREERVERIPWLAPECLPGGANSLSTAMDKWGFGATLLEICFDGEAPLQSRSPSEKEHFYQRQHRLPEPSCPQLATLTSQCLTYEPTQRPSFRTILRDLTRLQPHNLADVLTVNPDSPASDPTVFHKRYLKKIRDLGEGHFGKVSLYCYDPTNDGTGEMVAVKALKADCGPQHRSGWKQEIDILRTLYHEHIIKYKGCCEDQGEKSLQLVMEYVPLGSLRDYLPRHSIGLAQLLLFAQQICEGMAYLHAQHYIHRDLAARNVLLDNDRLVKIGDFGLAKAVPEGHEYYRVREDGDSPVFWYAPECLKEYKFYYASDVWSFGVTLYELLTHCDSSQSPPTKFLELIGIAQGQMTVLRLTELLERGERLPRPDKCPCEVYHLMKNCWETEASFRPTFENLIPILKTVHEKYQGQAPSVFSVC

| SMILES | IC50 [1] | Kd [2] | IC50 [3] | inhibition at 10 µM (JAK2 kinase domain (JH1)) | inhibition at 10 µM (Tyk2 kinase domain (DH1)) |
| --- | --- | --- | --- | --- | --- |
| CNc1cc(Nc2cccn(-c3ccc(C4CC4)nn3)c2=O)nc2c(C(=O)N[C@H]3C[C@H]3F)cnn12 [I-165] | < 100 nM | < 0.2 nM | > 2.5 µM | < 50% | < 50% |
| CNc1cc(Nc2cccnc2OC2CCC2)nc2c(C(=O)N[C@H]3C[C@H]3F)cnn12 [I-170] | < 100 nM | < 0.2 nM | > 50 µM | < 50% | < 50% |
| [2H]C([2H])([2H])Oc1ncccc1Nc1cc(NC)n2ncc(C(=O)NC3CCC3)c2n1 [I-176] | < 100 nM | < 0.2 nM | > 50 µM | < 50% | < 50% |
| [2H]C([2H])([2H])Oc1ncccc1Nc1cc(NC)n2ncc(C(=O)N[C@H]3C[C@H]3F)c2n1 [I-177] | < 100 nM | < 0.2 nM | > 12.5 µM | < 50% | < 50% |
| CNc1cc(Nc2cccn([C@H]3CC[C@@H](N4CCOCC4)CC3)c2=O)nc2c(C(=O)NC3CCC3)cnn12 [I-182] | < 100 nM | < 0.2 nM | > 2.5 µM | < 50% | < 50% |
| CNc1cc(-c2c[nH]c3c(C4CCOCC4)cc(Cl)cc23)nc2c(C(N)=O)cnn12 [I-190] | < 100 nM | < 0.2 nM | > 12.5 µM | < 50% | < 50% |
| CNc1cc(Nc2cccn(C3CCN(CC(F)F)CC3)c2=O)nc2c(C(=O)NC3CCC3)cnn12 [I-192] | < 100 nM | < 0.2 nM | > 12.5 µM | < 50% | < 50% |
| CNc1cc(Nc2cc(F)cn(-c3ccccn3)c2=O)nc2c(C(=O)NC3CCC3)cnn12 [I-193] | < 100 nM | 0.2 to 1 nM | > 12.5 µM | < 50% | < 50% |
| CNc1cc(Nc2cc(F)cn(-c3ccccn3)c2=O)nc2c(C(=O)N[C@H]3C[C@H]3F)cnn12 [I-194] | < 100 nM | < 0.2 nM | > 12.5 µM | < 50% | < 50% |
| CNc1cc(Nc2cc(F)cn(-c3ccc(C)nn3)c2=O)nc2c(C(=O)N[C@H]3C[C@H]3F)cnn12 [I-198] | < 100 nM | < 0.2 nM | > 2.5 µM | < 50% | < 50% |
| CNc1cc(Nc2cc(F)cnc2OC(C)C)nc2c(C(=O)N[C@H]3C[C@H]3F)cnn12 [I-211] | 100 to 500 nM | 0.2 to 1 nM | > 50 µM | < 50% | < 50% |
| CNc1cc(Nc2cccnc2OC2CC2)nc2c(C(=O)NC3CC3)cnn12 [I-215, 5-((2-cyclopropoxypyridin-3-yl)amino)-N-cyclopropyl-7-(methylamino) pyrazolo[1,5-a]pyrimidine-3-carboxamide] | < 100 nM | < 0.2 nM | > 50 µM | < 50% | < 50% |
| CNc1cc(Nc2cccnc2OC2CC2)nc2c(C(=O)NC3CCC3)cnn12 [I-216] | < 100 nM | < 0.2 nM | > 12.5 µM | < 50% | < 50% |
| CNc1cc(Nc2cccnc2OC2CC2)nc2c(C(=O)N[C@H]3C[C@H]3F)cnn12 [I-217] | < 100 nM | < 0.2 nM | > 50 µM | < 50% | < 50% |
| CNc1cc(Nc2cccnc2OCCOC)nc2c(C(=O)NC3CCC3)cnn12 [I-219] | < 100 nM | < 0.2 nM | > 12.5 µM | < 50% | < 50% |
| CNc1cc(Nc2cccnc2OCCOC)nc2c(C(=O)N[C@H]3C[C@H]3F)cnn12 [I-220] | < 100 nM | < 0.2 nM | > 12.5 µM | < 50% | < 50% |
| CNc1cc(-c2cn(C(C)C)c3ncccc23)nc2c(C(N)=O)cnn12 [I-222, 5-(1-isopropyl-1H-pyrrolo[2,3-b]pyridin-3-yl)-7-(methylamino)pyrazolo[1,5-a]pyrimidine-3-carboxamide] | < 100 nM | 0.2 to 1 nM | > 2.5 µM | < 50% | < 50% |
| CNc1cc(-c2cn(C(C)C)c3ncccc23)nc2c(C(=O)NC3CC3)cnn12 [I-223] | < 100 nM | < 0.2 nM | > 12.5 µM | < 50% | < 50% |
| CNc1cc(-c2cn(C(C)C)c3ncccc23)nc2c(C(=O)NC3CCC3)cnn12 [I-224] | < 100 nM | < 0.2 nM | > 50 µM | < 50% | < 50% |

| SMILES | IC50 [1] | Kd [2] | IC50 [3] | inhibition at 10 µM (JAK2 kinase domain (JH1)) | inhibition at 10 µM (Tyk2 kinase domain (DH1)) |
| --- | --- | --- | --- | --- | --- |
| CNc1cc(Nc2cc(C)cn(-c3cnn(C)c3)c2=O)nc2c(C(=O)NC3CC3)cnn12 [I-233] | < 100 nM | < 0.2 nM | > 50 µM | < 50% | < 50% |
| CNc1cc(Nc2cc(C)cn(-c3cnn(C)c3)c2=O)nc2c(C(=O)NC3CCC3)cnn12 [I-234] | < 100 nM | < 0.2 nM | > 2.5 µM | < 50% | < 50% |
| CNc1cc(Nc2cc(C)cn(-c3cnn(C)c3)c2=O)nc2c(C(=O)N[C@H]3C[C@H]3F)cnn12 [I-235] | < 100 nM | < 0.2 nM | > 2.5 µM | < 50% | < 50% |
| CNc1cc(Nc2cccc(N3CCOC3=O)n2)nc2c(C(=O)N[C@H]3C[C@H]3F)cnn12 [I-236] | < 100 nM | < 0.2 nM | > 2.5 µM | < 50% | < 50% |
| CNc1cc(Nc2cccn(-c3ccc(F)cn3)c2=O)nc2c(C(=O)NC3CCC3)cnn12 [I-238] | < 100 nM | < 0.2 nM | > 50 µM | < 50% | < 50% |
| CNc1cc(Nc2cccn(-c3ccc(C4CC4)nn3)c2=O)nc2c(C(=O)NC3CCC3)cnn12 [I-240] | < 100 nM | < 0.2 nM | > 2.5 µM | < 50% | < 50% |
| CNc1cc(Nc2cccn(-c3nccs3)c2=O)nc2c(C(=O)N[C@H]3C[C@H]3F)cnn12 [I-243] | < 100 nM | 0.2 to 1 nM | > 2.5 µM | < 50% | < 50% |
| CNc1cc(Nc2cccc(N3CCCC3=O)n2)nc2c(C(=O)N[C@H]3C[C@H]3F)cnn12 [I-244] | < 100 nM | < 0.2 nM | > 12.5 µM | < 50% | < 50% |
| CNc1cc(Nc2cccn(-c3ccc(F)cc3)c2=O)nc2c(C(=O)NC3CCC3)cnn12 [I-246] | < 100 nM | < 0.2 nM | > 2.5 µM | < 50% | < 50% |
| CNc1cc(Nc2cc(C)cn(-c3ccn(C)n3)c2=O)nc2c(C(=O)N[C@H]3C[C@H]3F)cnn12 [I-250] | < 100 nM | < 0.2 nM | > 12.5 µM | < 50% | < 50% |
| CNc1cc(-c2cn(C(C)C)c3ncc(C)cc23)nc2c(C(N)=O)cnn12 [I-255] | < 100 nM | < 0.2 nM | > 50 µM | < 50% | < 50% |
| [2H]C([2H])([2H])Oc1ncc(C)cc1Nc1cc(NC)n2ncc(C(=O)NC3CC3)c2n1 [I-258] | < 100 nM | < 0.2 nM | > 50 µM | < 50% | < 50% |
| [2H]C([2H])([2H])Oc1ncc(C)cc1Nc1cc(NC)n2ncc(C(=O)N[C@H]3C[C@H]3F)c2n1 [I-259] | < 100 nM | < 0.2 nM | > 12.5 µM | < 50% | < 50% |
| CNc1cc(Nc2cccn(-c3ncc(C)s3)c2=O)nc2c(C(=O)NC3CC3)cnn12 [I-261, N-cyclopropyl-7-(methylamino)-5-((1-(5-methylthiazol-2-yl)-2-oxo-1,2-dihydropyridin-3-yl)amino)pyrazolo[1,5-a]pyrimidine-3-carboxamide] | < 100 nM | 0.2 to 1 nM | > 2.5 µM | < 50% | < 50% |
| CNc1cc(Nc2cccn(-c3ncc(C)s3)c2=O)nc2c(C(=O)N[C@H]3C[C@H]3F)cnn12 [I-262] | < 100 nM | < 0.2 nM | > 2.5 µM | < 50% | < 50% |
| CNc1cc(Nc2cccn(-c3ncc(C)s3)c2=O)nc2c(C(=O)NC3CCC3)cnn12 [I-263] | < 100 nM | < 0.2 nM | > 2.5 µM | < 50% | < 50% |
| CNc1cc(Nc2cccn(-c3ccc(OC)cn3)c2=O)nc2c(C(=O)N[C@H]3C[C@H]3F)cnn12 [I-265] | < 100 nM | < 0.2 nM | > 12.5 µM | < 50% | < 50% |
| CNc1cc(Nc2cccn(-c3ccc(OC)cn3)c2=O)nc2c(C(=O)NC3CCC3)cnn12 [I-266] | < 100 nM | < 0.2 nM | > 12.5 µM | < 50% | < 50% |
